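Growth conditions: 96-well plates. Treatment: test compound, 48 hours, 5 concentrations. Analysis: linear interpolation between bracketing concentrations; unreached endpoints set to highest concentration. GI50 marks 50% less growth.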 Calls of active or inactive are those of the source. Cut-off read from the data, not from the text of the source: active = GI50 up to about 1.1 µM and inactive = higher.
How the values were obtained:
Test in all cases: growth of human tumour cells (NCI), 48 h
SN12C = system: SN12C
NCI-H460 = system: NCI-H460
TK-10 = system: TK-10
HCT-116 = system: HCT-116
SNB-75 = system: SNB-75
HOP-18 = system: HOP-18
HCC 2998 = system: HCC 2998
ACHN = system: ACHN
UO-31 = system: UO-31
OVCAR-3 = system: OVCAR-3
KM-20L2 = system: KM-20L2
786-0 = system: 786-0
LOX IMVI = system: LOX IMVI
NCI-H522 = system: NCI-H522
RXF 393 = system: RXF 393
DMS-114 = system: DMS-114
XF498 = system: XF498
IGROV-1 = system: IGROV-1
SNB-78 = system: SNB-78
A549 = system: A549
UACC-257 = system: UACC-257
OVCAR-8 = system: OVCAR-8
MOLT-4 = system: MOLT-4
SF-295 = system: SF-295
SF-268 = system: SF-268
M19-MEL = system: M19-MEL
SK-OV-3 = system: SK-OV-3
HCT-15 = system: HCT-15
NCI-H23 = system: NCI-H23
SK-MEL-5 = system: SK-MEL-5
Malme-3M = system: Malme-3M
HOP-62 = system: HOP-62
RPMI-8226 = system: RPMI-8226
DMS-273 = system: DMS-273
K562 = system: K562
SK-MEL-2 = system: SK-MEL-2
SF-539 = system: SF-539
DLD-1 = system: DLD-1
SK-MEL-28 = system: SK-MEL-28
RXF 631 = system: RXF 631
OVCAR-4 = system: OVCAR-4
HL-60 = system: HL-60
A498 = system: A498
EKVX = system: EKVX
M14 = system: M14
SW-620 = system: SW-620
UACC-62 = system: UACC-62
CCRF-CEM = system: CCRF-CEM
NCI-H226 = system: NCI-H226
KM12 = system: KM12
U-251 = system: U-251
OVCAR-5 = system: OVCAR-5
SNB-19 = system: SNB-19
HOP-92 = system: HOP-92
CAKI-1 = system: CAKI-1
LXFL 529 = system: LXFL 529
COLO 205 = system: COLO 205
SR = system: SR
HT-29 = system: HT-29

CCc1cccc(C)c1NC(=O)CC1Sc2ccccc2NC1=O (stereo unspecified)
GI50 (SN12C): > 100 µM (inactive) | GI50 (NCI-H460): 34.4 µM (inactive) | GI50 (TK-10): 93.1 µM (inactive) | GI50 (HCT-116): 34.3 µM (inactive) | GI50 (SNB-75): 10.7 µM (inactive) | GI50 (HOP-18): 19.5 µM (inactive) | GI50 (HCC 2998): 22.4 µM (inactive) | GI50 (ACHN): 40.8 µM (inactive) | GI50 (UO-31): 30.1 µM (inactive) | GI50 (OVCAR-3): 32.6 µM (inactive) | GI50 (KM-20L2): 46.5 µM (inactive) | GI50 (786-0): 29.2 µM (inactive) | GI50 (LOX IMVI): 48.8 µM (inactive) | GI50 (NCI-H522): 20 µM (inactive) | GI50 (RXF 393): 16.9 µM (inactive) | GI50 (DMS-114): 57.3 µM (inactive) | GI50 (XF498): 72.9 µM (inactive) | GI50 (IGROV-1): 88.7 µM (inactive) | GI50 (SNB-78): 34.4 µM (inactive) | GI50 (A549): 44.2 µM (inactive) | GI50 (UACC-257): 11.4 µM (inactive) | GI50 (OVCAR-8): 65.5 µM (inactive) | GI50 (MOLT-4): 29.2 µM (inactive) | GI50 (SF-295): 95.7 µM (inactive) | GI50 (SF-268): 50.7 µM (inactive) | GI50 (M19-MEL): 45.4 µM (inactive) | GI50 (SK-OV-3): 75.7 µM (inactive) | GI50 (HCT-15): 39.3 µM | GI50 (NCI-H23): 38 µM (inactive) | GI50 (SK-MEL-5): 23.4 µM (inactive) | GI50 (Malme-3M): 27.3 µM (inactive) | GI50 (HOP-62): 15.1 µM (inactive) | GI50 (RPMI-8226): 24.4 µM (inactive) | GI50 (DMS-273): 48.9 µM (inactive) | GI50 (K562): 23.8 µM (inactive) | GI50 (SK-MEL-2): 33.6 µM (inactive) | GI50 (SF-539): 31.9 µM (inactive) | GI50 (DLD-1): 28.4 µM (inactive) | GI50 (SK-MEL-28): 84.7 µM (inactive) | GI50 (RXF 631): 35.8 µM (inactive) | GI50 (OVCAR-4): 75.3 µM (inactive) | GI50 (HL-60): 18.1 µM (inactive) | GI50 (A498): 28.6 µM (inactive) | GI50 (EKVX): 91.8 µM (inactive) | GI50 (M14): 39.4 µM (inactive) | GI50 (SW-620): 37.8 µM (inactive) | GI50 (UACC-62): 46.9 µM (inactive) | GI50 (CCRF-CEM): 25.2 µM (inactive) | GI50 (NCI-H226): 16 µM (inactive) | GI50 (KM12): 34.9 µM (inactive) | GI50 (U-251): 31.5 µM (inactive) | GI50 (OVCAR-5): 42.4 µM (inactive) | GI50 (SNB-19): 57.4 µM (inactive) | GI50 (HOP-92): 32.8 µM (inactive) | GI50 (CAKI-1): 60.5 µM (inactive) | GI50 (LXFL 529): 56.8 µM (inactive) | GI50 (COLO 205): 53.7 µM (inactive)

O=C(/C=C/c1ccccc1O)c1cccnc1
GI50 (SN12C): > 100 µM (inactive) | GI50 (NCI-H460): > 100 µM (inactive) | GI50 (TK-10): > 100 µM (inactive) | GI50 (HCT-116): > 100 µM (inactive) | GI50 (SNB-75): > 100 µM (inactive) | GI50 (HOP-18): > 100 µM (inactive) | GI50 (HCC 2998): > 100 µM (inactive) | GI50 (ACHN): > 100 µM (inactive) | GI50 (UO-31): > 100 µM (inactive) | GI50 (OVCAR-3): > 100 µM (inactive) | GI50 (KM-20L2): > 100 µM (inactive) | GI50 (786-0): > 100 µM (inactive) | GI50 (LOX IMVI): > 100 µM (inactive) | GI50 (NCI-H522): > 100 µM (inactive) | GI50 (RXF 393): > 100 µM (inactive) | GI50 (XF498): > 100 µM (inactive) | GI50 (IGROV-1): > 100 µM (inactive) | GI50 (SNB-78): > 100 µM (inactive) | GI50 (A549): > 100 µM (inactive) | GI50 (UACC-257): > 100 µM (inactive) | GI50 (OVCAR-8): > 100 µM (inactive) | GI50 (MOLT-4): > 100 µM (inactive) | GI50 (SF-295): > 100 µM (inactive) | GI50 (SF-268): > 100 µM (inactive) | GI50 (M19-MEL): > 100 µM (inactive) | GI50 (SK-OV-3): > 100 µM (inactive) | GI50 (NCI-H23): 51.3 µM (inactive) | GI50 (SK-MEL-5): > 100 µM (inactive) | GI50 (Malme-3M): > 100 µM (inactive) | GI50 (SR): > 100 µM (inactive) | GI50 (HOP-62): > 100 µM (inactive) | GI50 (DMS-273): > 100 µM (inactive) | GI50 (K562): > 100 µM (inactive) | GI50 (SK-MEL-2): > 100 µM (inactive) | GI50 (SF-539): > 100 µM (inactive) | GI50 (DLD-1): > 100 µM (inactive) | GI50 (SK-MEL-28): > 100 µM (inactive) | GI50 (RXF 631): > 100 µM (inactive) | GI50 (OVCAR-4): > 100 µM (inactive) | GI50 (HL-60): > 100 µM (inactive) | GI50 (A498): > 100 µM (inactive) | GI50 (EKVX): > 100 µM (inactive) | GI50 (M14): > 100 µM (inactive) | GI50 (SW-620): > 100 µM (inactive) | GI50 (UACC-62): > 100 µM (inactive) | GI50 (CCRF-CEM): > 100 µM (inactive) | GI50 (NCI-H226): > 100 µM (inactive) | GI50 (KM12): > 100 µM (inactive) | GI50 (U-251): > 100 µM (inactive) | GI50 (OVCAR-5): > 100 µM (inactive) | GI50 (SNB-19): > 100 µM (inactive) | GI50 (HT-29): > 100 µM (inactive) | GI50 (CAKI-1): > 100 µM (inactive) | GI50 (LXFL 529): > 100 µM (inactive)
